Where no end group is shown, it is not given here.
What was measured:
[1] = system: calvaria from 4-days-old mice; assay: Fetal mouse calvarial assay (mouse calvarial organ culture, histomorphometry of new bone area); format: cell-based; settings: 7-day organ culture of mouse calvaria halves in BGj medium with 0.1% BSA
Protocol: FGF-1 was purchased from Peprotech Inc. (Rocky Hill, N.J.). RGD-1, 2, 3, 4, 5 and 6 (referred to here as D-00001, D-00002, D-00003, D-00004, D-00005 and D-00006) were provided by Dr. Nomizu (Hokkaido University, Japan).
Pregnant ICR mice were purchased from SLC Japan Co. Ltd. (Shizuoka, Japan).
Mouse calvarial organ culture was performed as described in Mundy G et al. Science 286: 1946–1949, 1999 and Traianedes K et al. Endocrinology 139: 3178–3184, 1998. The calvaria from 4-days-old mice were excised and cut in half along the sagittal suture. Each half of the calvaria was placed on a stainless steel grid in a 12-well tissue culture dish (Asahi Glass Techno Corp., Funabashi, Japan). Each well contained 1.5 ml of BGj medium (Sigma, St. Louis, Mo.) supplemented with 0.1% bovine serum albumin (Sigma) and each compound. FGF-1 was used as a positive control as described by Mundy et al. The medium was changed at day 1 and 4, and the assay was terminated at day 7.
Calvaria was fixed with 10% neutral-buffered formalin, decalcified with 4.13% EDTA and embedded in paraffin. […] sections were made and stained with hematoxylin and eosin. New bone area was measured using Image-Pro Plus (Media Cybernetics, Silver Spring, Md.).

[2] = system: calvariae of four week old mice; assay: In vivo bone formation study (mouse calvaria growth assay); settings: for bone area of calvaria sections compared to vehicle treated group: s.c. adjacent to calvariae twice a day for five days, D-00006 20 μg/kg/day, FGF-1 12.5 μg/kg/day, excised 15 days after last administration
Protocol: FGF-1 was purchased from Peprotech Inc. (Rocky Hill, N.J.). RGD-6 (referred to here as D-00006) was synthesized by CS Bio (San Carlos, Calif.) under the instruction of the inventors.
Four week old mice were purchased from SLC Japan Co. Ltd. (Shizuoka, Japan) and randomized to three groups (n=5).
D-00006 (20 μg/kg/day), FGF-1 (12.5 μg/kg/day), or vehicle (saline) was subcutaneously injected into the soft tissues adjacent to the calvariae of the test animals. The daily amount of the samples were divided by two, respectively, and injected twice a day for five days. After 15 days of the last administration, the calvariae were excised and cut in half along the sagittal suture, and provided to the Histomorphometrical analysis.
Calvaria was fixed with 10% neutral-buffered formalin, decalcified with 4.13% EDTA and embedded in paraffin. 4mm-thickness sections were made and stained with hematoxylin and eosin. New bone area was measured using Image-Pro Plus (Media Cybernetics, Silver Spring, Md.).

[3] = system: ovariectomized female Sprague-Dawley rats; assay: Effect on renal phosphate excretion in ovariectomized rats (serum and urine chemistry); format: in vivo, rat; settings: Ovx rats, D-00006 20 and 200 μg/kg/day
From the text: Forty 3-month old virgin female Sprague-Dawley rats (Harlan Sprague Dawley, Inc.) were acclimated for one week prior to beginning the experiments.
One day prior to the initiation of treatments, the animals were anesthetized with a ketamin/xylazine anesthetic mixture, and animals in groups 2–5 were ovariectomized.
Urine was collected in metabolic cages on Day 41. Blood and urine samples were collected for chemistry and bone turnover markers assays at the end of the 41-day treatment period. Prior to urine and blood collections, the animals were placed in metabolic cages and deprived of food for an overnight fast period of 18 hours. Urine samples were collected and the volumes recorded. The urine samples were then centrifuges at approximately 3000×g for 10 minutes in a refrigerated centrifuge. The samples were filtered to remove contaminating sediments.

Substance	ability to enhance bone growth (new bone area) [1]	bone area of calvaria sections compared to vehicle treated group [2]	efficacy on bone area relative to FGF-1 ([2]; D-00006 20 μg/kg/day vs FGF-1 12.5 μg/kg/day)	serum phosphorus ([3]; 41-day treatment)	total amount of phosphorus in the 18-hour urine collections ([3]; Day 41)	percentage of tubular reabsorption of phosphorus ([3]; derived urine parameter)	phosphate clearance ([3]; derived urine parameter)
ERGDNDISPFSGDGQ (ERGDNDISPFSGDGQ-NH2) [D-00004]	best results						
FGF-1: fibroblast growth factor-1 purchased from Peprotech Inc., used as a positive control [reference compound]		significant expansion of bone area					
TDLQERGDNDISPFSGDGQPFKD [D-00006]	best results	significant expansion of bone area	equivalent to that of FGF-1	dose-dependent increase	significant decrease	higher	lower
